Data taken from PubChem BioAssay AID248 (DTP/NCI, 2004).
Where “and” joins values, the source holds several entries; their conditions need not be identical. Equal entries are not always repeated. Inconclusive results and toxic doses are left out. Cut-off read from the data, not from the text of the source: active = T/C of 150% or more; inactive = T/C below 125%.

Tested on: L1210 leukemia ip in BDF1 mice, survival T/C
Test: NCI In Vivo Anticancer Drug Screen. Data for tumor model L1210 Leukemia (intraperitoneal) in B6D2F1 (BDF1) mice
Conditions: endpoint: mean survival time, higher = longer survival
In short: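 Mice bearing the transplanted tumor received compound or vehicle. Survival of the treated group was divided by that of the vehicle-treated control group to give the ratio.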

[1] = dose: 100.0 mg/kg/injection, schedule: Q01DX001 (ip), vehicle: saline
[2] = dose: 200.0 mg/kg/injection, schedule: Q01DX001 (ip), vehicle: saline
[3] = dose: 400.0 mg/kg/injection, schedule: Q01DX001 (ip), vehicle: saline
[4] = dose: 25.0 mg/kg/injection, schedule: Q01DX009 (ip), vehicle: Klucel (hydroxypropylcellulose) (HPC)
[5] = dose: 50.0 mg/kg/injection, schedule: Q01DX009 (ip), vehicle: Klucel (hydroxypropylcellulose) (HPC)
[6] = dose: 100.0 mg/kg/injection, schedule: Q01DX001 (ip), vehicle: carboxymethylcellulose (CMC)
[7] = dose: 200.0 mg/kg/injection, schedule: Q01DX001 (ip), vehicle: carboxymethylcellulose (CMC)
[8] = dose: 100.0 mg/kg/injection, schedule: Q01DX009 (ip), vehicle: saline
[9] = dose: 100.0 mg/kg/injection, schedule: Q04DX003 (ip), vehicle: saline
[10] = dose: 200.0 mg/kg/injection, schedule: Q01DX009 (ip), vehicle: saline
[11] = dose: 200.0 mg/kg/injection, schedule: Q04DX003 (ip), vehicle: saline
[12] = dose: 400.0 mg/kg/injection, schedule: Q01DX009 (ip), vehicle: saline
[13] = dose: 400.0 mg/kg/injection, schedule: Q04DX003 (ip), vehicle: saline
[14] = dose: 50.0 mg/kg/injection, schedule: Q01DX001 (ip), vehicle: saline
[15] = dose: 100.0 mg/kg/injection, schedule: Q01DX009 (ip), vehicle: Klucel (hydroxypropylcellulose) (HPC)
[16] = dose: 100.0 mg/kg/injection, schedule: Q04DX003 (ip), vehicle: saline with Tween-80
[17] = dose: 100.0 mg/kg/injection, schedule: Q01DX009 (ip), vehicle: saline with Tween-80
[18] = dose: 200.0 mg/kg/injection, schedule: Q01DX009 (ip), vehicle: saline with Tween-80
[19] = dose: 400.0 mg/kg/injection, schedule: Q01DX009 (ip), vehicle: saline with Tween-80

Measured: T/C

COc1cc(N)c2ncccc2c1Cl
inactive: [1] 104 % of control | [2] 104 % of control | [3] 101 % of control

Cc1nc(N)nc(N)c1CCCOc1ccc(N)cc1
inactive: dose: 100.0 mg/kg/injection, schedule: Q01DX001 (ip), vehicle: Klucel (hydroxypropylcellulose) (HPC) 103 % of control | dose: 200.0 mg/kg/injection, schedule: Q01DX001 (ip), vehicle: Klucel (hydroxypropylcellulose) (HPC) 97 % of control | dose: 400.0 mg/kg/injection, schedule: Q01DX001 (ip), vehicle: Klucel (hydroxypropylcellulose) (HPC) 100 % of control

ClC12c3ccccc3C(c3ccccc31)C1(Cl)c3ccccc3C2c2ccccc21
inactive: dose: 100.0 mg/kg/injection, schedule: Q04DX002 (ip), vehicle: Klucel (hydroxypropylcellulose) (HPC) 102 % of control | dose: 200.0 mg/kg/injection, schedule: Q04DX002 (ip), vehicle: Klucel (hydroxypropylcellulose) (HPC) 109 % of control | dose: 400.0 mg/kg/injection, schedule: Q04DX002 (ip), vehicle: Klucel (hydroxypropylcellulose) (HPC) 106 % of control

CC(=O)OC1CCC2(C)C(CCC3C4CC=C(C(C)=O)C4(C)OC(=O)CC32)C1 (stereo not drawn)
inactive: dose: 12.5 mg/kg/injection, schedule: Q01DX009 (ip), vehicle: Klucel (hydroxypropylcellulose) (HPC) 98 % of control | [4] 96 % of control | [5] 98 % of control

CCN(CC)c1nc2ccccc2o1
inactive: [6] 102 % of control | [7] 91 % of control | dose: 400.0 mg/kg/injection, schedule: Q01DX001 (ip), vehicle: carboxymethylcellulose (CMC) 91 % of control

CC(=O)C1(O)CCCCC1
inactive: [8] 104 % of control | [9] 92 % of control | [10] 98 % of control | [11] 98 % of control | [12] 109 % of control | [13] 94 % of control

N=c1c2ccccc2nnn1-c1ccccc1[N+](=O)[O-]
inactive: dose: 75.0 mg/kg/injection, schedule: Q01DX001 (ip), vehicle: other 92 % of control | dose: 150.0 mg/kg/injection, schedule: Q01DX001 (ip), vehicle: other 99 % of control | dose: 300.0 mg/kg/injection, schedule: Q01DX001 (ip), vehicle: other 92 % of control

CCN(CC)c1ccc(/C=N\NC(=O)CCCC(=O)N/N=C/c2ccc(N(CC)CC)cc2)cc1
inactive: [14] 102 % of control | [1] 100 % of control | [2] 96 % of control | [3] 100 % of control

O=C(NC(=O)c1ccccc1)Nc1cccc2ccccc12
inactive: dose: 100.0 mg/kg/injection, schedule: Q04DX002 (ip), vehicle: gum acacia 97 % of control | dose: 200.0 mg/kg/injection, schedule: Q04DX002 (ip), vehicle: gum acacia 90 % of control | dose: 400.0 mg/kg/injection, schedule: Q04DX002 (ip), vehicle: gum acacia 90 % of control

CS(=O)(=O)OC/C(Br)=C/Br
inactive: [6] 103 % of control | [7] 101 % of control

C=CC1(C)CCC2C(=CCC3C(C)(COC4OC(CO)C(O)C(O)C4O)C(O)CCC23C)C1 (stereo not drawn)
inactive: dose: 75.0 mg/kg/injection, schedule: Q01DX001 (ip), vehicle: saline 102 % of control | dose: 150.0 mg/kg/injection, schedule: Q01DX001 (ip), vehicle: saline 98 % of control

CC(C)c1ccc(NC(=O)Nc2cc(Cl)ccc2Cl)cc1
inactive: dose: 100.0 mg/kg/injection, schedule: Q01DX009 (ip), vehicle: gum acacia 89 % of control | dose: 200.0 mg/kg/injection, schedule: Q04DX003 (ip), vehicle: gum acacia 89 % of control | dose: 400.0 mg/kg/injection, schedule: Q01DX009 (ip), vehicle: gum acacia 89 % of control | dose: 400.0 mg/kg/injection, schedule: Q04DX003 (ip), vehicle: gum acacia 87 % of control

COC(=O)c1ccc(OC(=O)Nc2ccc([N+](=O)[O-])cc2OC)cc1
inactive: [4] 96 % of control | [5] 101 % of control | [15] 93 % of control and 100 % of control

CC(C)C(CN)(CCN1CCCCC1)Cc1cccc2ccccc12 (stereo not drawn)
inactive: [16] 97 % of control

Cn1c(CC(O)(C(F)(F)F)C(F)(F)F)cc2ccccc21
inactive: dose: 100.0 mg/kg/injection, schedule: Q01DX009 (ip), vehicle: other 95 % of control | dose: 200.0 mg/kg/injection, schedule: Q01DX009 (ip), vehicle: other 95 % of control | dose: 400.0 mg/kg/injection, schedule: Q01DX009 (ip), vehicle: other 93 % of control

CC(=O)Nc1ccc(Cc2ccc(NC(C)=O)cc2N)c(N)c1
inactive: [14] 96 % of control | [1] 98 % of control | [2] 104 % of control | [3] 92 % of control

COC(=O)C(C)CN1CCCCCC1 (stereo not drawn)
inactive: [8] 97 % of control | [9] 100 % of control | [10] 104 % of control | [11] 104 % of control | [12] 95 % of control | [13] 102 % of control

Nc1cc2c3ccccc3ncc2c2ccccc12
inactive: [17] 106 % of control | [16] 104 % of control | [18] 108 % of control | dose: 200.0 mg/kg/injection, schedule: Q04DX003 (ip), vehicle: saline with Tween-80 94 % of control | [19] 108 % of control | dose: 400.0 mg/kg/injection, schedule: Q04DX003 (ip), vehicle: saline with Tween-80 105 % of control

CCOC(=O)NNC(=S)Nc1cccc(C(F)(F)F)c1
inactive: dose: 100.0 mg/kg/injection, schedule: Q04DX002 (ip), vehicle: saline with Tween-80 111 % of control | dose: 200.0 mg/kg/injection, schedule: Q04DX002 (ip), vehicle: saline with Tween-80 108 % of control

CC1=CC(=O)N(C2=CC(=O)C=CC2=O)/C1=C/C#N
inactive: dose: 12.5 mg/kg/injection, schedule: Q01DX001 (ip), vehicle: Klucel (hydroxypropylcellulose) (HPC) 97 % of control | dose: 25.0 mg/kg/injection, schedule: Q01DX001 (ip), vehicle: Klucel (hydroxypropylcellulose) (HPC) 88 % of control | dose: 50.0 mg/kg/injection, schedule: Q01DX001 (ip), vehicle: Klucel (hydroxypropylcellulose) (HPC) 93 % of control and 89 % of control

CC(C)(C)C(=O)CC(=O)C(C)(C)C.CC(C)(C)C(=O)CC(=O)C(C)(C)C.CC(C)(C)C(=O)CC(=O)C(C)(C)C.CC(C)(C)C(=O)CC(=O)C(C)(C)C.[Zr]
inactive: [15] 96 % of control | dose: 100.0 mg/kg/injection, schedule: Q04DX003 (ip), vehicle: Klucel (hydroxypropylcellulose) (HPC) 94 % of control | dose: 200.0 mg/kg/injection, schedule: Q01DX009 (ip), vehicle: Klucel (hydroxypropylcellulose) (HPC) 97 % of control | dose: 200.0 mg/kg/injection, schedule: Q04DX003 (ip), vehicle: Klucel (hydroxypropylcellulose) (HPC) 89 % of control | dose: 400.0 mg/kg/injection, schedule: Q01DX009 (ip), vehicle: Klucel (hydroxypropylcellulose) (HPC) 96 % of control | dose: 400.0 mg/kg/injection, schedule: Q04DX003 (ip), vehicle: Klucel (hydroxypropylcellulose) (HPC) 101 % of control

Cc1nc(N)[nH]c(=O)c1CCCNc1ccc(CCC2(CCl)OCCO2)cc1
inactive: dose: 50.0 mg/kg/injection, schedule: Q01DX Z (ip), vehicle: carboxymethylcellulose (CMC) 98 % of control | dose: 100.0 mg/kg/injection, schedule: Q01DX Z (ip), vehicle: carboxymethylcellulose (CMC) 101 % of control | dose: 200.0 mg/kg/injection, schedule: Q01DX Z (ip), vehicle: carboxymethylcellulose (CMC) 101 % of control | dose: 400.0 mg/kg/injection, schedule: Q01DX Z (ip), vehicle: carboxymethylcellulose (CMC) 90 % of control

O=C(c1ccccc1)c1ccc2ccc(F)cc2c1C(=O)O
inactive: [17] 113 % of control | dose: 100.0 mg/kg/injection, schedule: Q04DX003 (ip), vehicle: other 95 % of control | [18] 113 % of control | dose: 200.0 mg/kg/injection, schedule: Q04DX003 (ip), vehicle: other 103 % of control | [19] 107 % of control | dose: 400.0 mg/kg/injection, schedule: Q04DX003 (ip), vehicle: other 101 % of control
